What all share (format): in vivo
One series concerns soybean. The experiment in a line: Test Example 4: effect on crop by soil treatment (symbol d). The following applies: application herbicide amount 320 g/ha. The method, boiled down:
(§1)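 Grown at 25° C. to 30° C. in a greenhouse, the crops came from seed sown spot-wise in sterilized diluvial soil under roughly 1.5 cm of covering soil.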

The next series has as its system wheat. Briefly: Test Example 5: effect on crop by foliage application, plastic box (symbol e). The following applies: 320 g/ha, 3 weeks after application. The method, boiled down: (§2)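 Plants were raised from seed in a greenhouse (25° C. to 30° C.) after sowing in a plastic box of sterilized diluvial soil.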
The subject of another series is Amaranthus retroflexus. Briefly: Test Example 4: herbicidal effect by soil treatment (symbol N). The following applies: application herbicide amount 320 g/ha. The method, boiled down: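 Seeds were sown in sterilized diluvial soil, covered with about 1.5 cm of soil, and the soil surface was sprayed with a water-diluted emulsion of the compound at a predetermined rate. Plants grew in a greenhouse at 25° C. to 30° C.; effects were scored visually 3 weeks after application.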

Another series has as its system corn. The experiment in a line: Test Example 4: effect on crop by soil treatment (symbol c). As to conditions: application herbicide amount 320 g/ha. Summed up:
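The test used sterilized diluvial soil. Seed was set down in spots and overlaid with about 1.5 cm of soil before growth in a greenhouse kept at 25° C. to 30° C.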

The next series has as its system rice. Briefly: Test Example 4: effect on crop by soil treatment (symbol b). As to conditions: application herbicide amount 320 g/ha. Summed up:
as §1

A further series has as its system rice plant. The experiment in a line: Test Example 5: effect on crop by foliage application, plastic box (symbol b). The following applies: 320 g/ha, 3 weeks after application. The method, boiled down:
as §2

A further series has as its system Monochoria vaginalis. Briefly: Test Example 2: herbicidal activity, application during weed generation in submerged conditions (symbol C). The following applies: Table 23; application herbicide amount 320 g/ha; grade 0-5 by criteria of Test Example 1. Summed up: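 Treatment timing was the one- to two-leaf stage, with diluted emulsifiable compound dropped onto the paddy water (depth 4 cm) over alluvial soil. All three species grew from a mixed sowing in a 25° C. to 30° C. greenhouse. Injury was judged by eye 3 weeks on.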

Structures are written as SMILES.

`CON=C(C)CC1CC(OC(=O)COc2ccccc2)=C(c2c(C)cc(-c3ccccc3)cc2OC)C1=O` (centres unmarked) [6-100]: the “Effect on crop grade, d: soybean” value in the series on soybean is reported as 0 (Herbicidal ratio of 5% or lower (almost no effect)). In addition, the “e: wheat, effect on crop (criteria of Test Example 1)” value in the series on wheat is 5 (Herbicidal ratio of 90% or more (almost completely withered)). In addition, the “Herbicidal effect grade, N: Amaranthus retroflexus” value (shortened to “Herbicidal effect grade, N”) in the series with Amaranthus retroflexus is 5 (Herbicidal ratio of 90% or more (almost completely withered)). In addition, the “Effect on crop grade, c: corn” value in the series on corn is 4 (Herbicidal ratio of 70% or higher and lower than 90%). Moreover, the “Effect on crop grade, b: directly sowed rice plant” value (“Effect on crop grade, b” below) in the series with rice was 5 (Herbicidal ratio of 90% or more (almost completely withered)). Also, the “b: directly sowed rice plant, effect on crop (criteria of Test Example 1)” value in the series with rice plant is 5 (Herbicidal ratio of 90% or more (almost completely withered)). The “Herbicidal effect grade, C: Monochoria vaginalis” value (“Herbicidal effect grade, C” for short) in the series with Monochoria vaginalis was 5 (Herbicidal ratio of 90% or more (almost completely withered)).

On to `CC(=O)CC1CC(O)=C(c2c(C)cc(-c3ccc(C)cc3)cc2C)C1=O` (centres unmarked) [7-007], for which the “Effect on crop grade, d: soybean” value with soybean is given as 0 (Herbicidal ratio of 5% or lower (almost no effect)). Further, the “e: wheat, effect on crop (criteria of Test Example 1)” value in the series on wheat is 2 (Herbicidal ratio of 20% or higher and lower than 40%). In addition, the “Herbicidal effect grade, N” value in the series with Amaranthus retroflexus is recorded as 0 (Herbicidal ratio of 5% or lower (almost no effect)). Also, the “Effect on crop grade, c: corn” value in the series on corn was 3 (Herbicidal ratio of 40% or higher and lower than 70%). In the series with rice, the “Effect on crop grade, b” value is 4 (Herbicidal ratio of 70% or higher and lower than 90%). For the same compound, in the series on rice plant, the “b: directly sowed rice plant, effect on crop (criteria of Test Example 1)” value was 5 (Herbicidal ratio of 90% or more (almost completely withered)). Moreover, the “Herbicidal effect grade, C” value in the series on Monochoria vaginalis was 3 (Herbicidal ratio of 40% or higher and lower than 70%).

Turning to `CCc1cc(Br)cc(C)c1C1=C(O)CC(CC(C)=O)C1=O` (centres unmarked) [7-003], in the series with soybean, the “Effect on crop grade, d: soybean” value is listed as 0 (Herbicidal ratio of 5% or lower (almost no effect)). Moreover, in the series with wheat, the “e: wheat, effect on crop (criteria of Test Example 1)” value was 0 (Herbicidal ratio of 5% or lower (almost no effect)). Also, in the series with Amaranthus retroflexus, the “Herbicidal effect grade, N” value is 0 (Herbicidal ratio of 5% or lower (almost no effect)). The “Effect on crop grade, c: corn” value in the series on corn is 0 (Herbicidal ratio of 5% or lower (almost no effect)). Also, in the series on rice, the “Effect on crop grade, b” value is 5 (Herbicidal ratio of 90% or more (almost completely withered)). In the series with rice plant, the “b: directly sowed rice plant, effect on crop (criteria of Test Example 1)” value is reported as 5 (Herbicidal ratio of 90% or more (almost completely withered)). Also, the “Herbicidal effect grade, C” value in the series on Monochoria vaginalis is 0 (Herbicidal ratio of 5% or lower (almost no effect)).

For `CON=C(C)CC1CC(O)=C(c2c(C)cc(-n3cccn3)cc2C)C1=O` (centres unmarked) [6-073], the “d: soybean, effect on crop grade” value with soybean is reported as 0 (Herbicidal ratio of 5% or lower (almost no effect)). The “e: wheat, effect on crop (criteria of Test Example 1)” value with wheat is 3 (Herbicidal ratio of 40% or higher and lower than 70%). For the same compound, the “N: Amaranthus retroflexus, herbicidal effect grade” value in the series with Amaranthus retroflexus was 0 (Herbicidal ratio of 5% or lower (almost no effect)). Moreover, the “c: corn, effect on crop grade” value in the series with corn is 3 (Herbicidal ratio of 40% or higher and lower than 70%). The “b: directly sowed rice plant, effect on crop grade” value with rice was 5 (Herbicidal ratio of 90% or more (almost completely withered)). Besides, in the series with rice plant, the “b: directly sowed rice plant, effect on crop (criteria of Test Example 1)” value is recorded as 5 (Herbicidal ratio of 90% or more (almost completely withered)). Further, the “Herbicidal effect grade, C” value in the series on Monochoria vaginalis is 1 (Herbicidal ratio of 5% or higher and lower than 20%).

`CON=C(C)CC1CC(OC(=O)C(C)(C)Oc2ccccc2)=C(c2c(C)cc(C)cc2C)C1=O` (centres unmarked) [1-017]: the “d (soybean) effect on crop grade” value in the series with soybean is 2 (Herbicidal ratio of 20% or higher and lower than 40%). The “e: wheat, effect on crop grade” value in the series with wheat is 5 (Herbicidal ratio of 90% or more (almost completely withered)). For the same compound, the “N (Amaranthus retroflexus) herbicidal effect grade” value with Amaranthus retroflexus is on record as 5 (Herbicidal ratio of 90% or more (almost completely withered)). Further, the “c (corn) effect on crop grade” value in the series on corn was 4 (Herbicidal ratio of 70% or higher and lower than 90%). Moreover, in the series with rice, the “b (directly sowed rice plant) effect on crop grade” value is reported as 5 (Herbicidal ratio of 90% or more (almost completely withered)). Further, in the series on rice plant, the “b: directly sowed rice plant, effect on crop grade” value is on record as 5 (Herbicidal ratio of 90% or more (almost completely withered)). Moreover, the “Herbicidal effect grade, C” value with Monochoria vaginalis is 3 (Herbicidal ratio of 40% or higher and lower than 70%).

The record behind these values is patent publication US11000033B2, “Ketone or oxime compound, and herbicide” (NISSAN CHEMICAL CORPORATION, priority 2014, dated 2021).
